Where two headings read alike, the source gives them in different places.
Columns and labels:
APH(2”)-IVa [1] = system: APH(2”)-IVa; parameters: method as in PMID 19158087; conditions: read-out: Michaelis constant (Km) for ATP; cited from earlier work
APH(3’)-IIb = system: APH(3’)-IIb; parameters: method as in earlier work; conditions: read-out: Michaelis constant (Km) for ATP; cited from earlier work
APH(3’)-IIa = conditions: read-out: Michaelis constant (Km) for ATP; cited from earlier work
APH(3’)-IIIa [2] = target: APH(3’)-IIIa; parameters: method as in PMID 21573013, PMID 15388945; conditions: read-out: Inhibition constant; cited from earlier work
APH(9)-Ia = target: APH(9)-Ia; parameters: method as in PMID 21573013, PMID 15388945; conditions: read-out: Inhibition constant; cited from earlier work
APH(3’)-Ia = target: APH(3’)-Ia; parameters: method as in PMID 23758273; conditions: read-out: Inhibition constant; cited from earlier work
[3] = system: resistant hyper-permeable efflux mutant of E. coli (ΔtolC ΔbamB); conditions: cited from earlier work
APH(2”)-IVa [4] = target: T1, APH(2”)-IVa (Enterococcus casseliflavus, UniProt O68183); test: biochemical; type: binding; conditions: read-out: ΔTm (°C)
Experimental: Thermal shift assays were performed using an RTqPCR machine Mx3005P (Stratagene) in 96-well plates (Thermo-Fast low Profile, ThermoScientific) by mixing the protein at 5 µM, SYPRO® Orange (Sigma Aldrich) at […], and fragments at 500 µM. Fluorescence was followed with Cy3 and SYAL filters. Denaturation curves were collected using MxPro-Mx3005P v4.10 software and analyzed using the implemented version of wTSA-CRAFT[36].

APH(2”)-IVa [5] = target: T1, APH(2”)-IVa; test: biochemical; type: binding
Experimental: ITC experiments were performed on three different machines: a MicroCal VP-ITC (GE Healthcare), a MicroCal PEAQ-ITC (Malvern), or a MicroCal iTC200 (Malvern). The architecture and principles are similar for the three different systems. The experiments were carried out in Buffer HEPES at 25 °C. Titrations consisted of twenty injections of 1.5 µL inhibitors, every 120 seconds, into the measuring cell using the injection syringe rotating at 750 rpm. The data were analyzed using the MicroCal PEAQ-ITC software (v. 1.52, Malvern) using the single-site binding model to fit the raw data. The standard error of the Kd value was determined from measurements made on distinct samples (n indicated in the text).

APH(2”)-IVa [6] = target: T1, APH(2”)-IVa
APH(2”)-IVa [7] = target: T1, APH(2”)-IVa; test: biochemical; conditions: Ki (µM), inhibition constant, ATP-competitive; 0-2 mM MgATP, 100 µM kanamycin A, global fitting
12 different APHs = target: 12 different APHs; parameters: method as in PMID 23758273; conditions: all the APHs tested; cited from earlier work
APH(2”)-Ib = system: APH(2”)-Ib; parameters: method as in PMID 11514228; conditions: at 1 mM; cited from earlier work
APH(3’)-IIIa [8] = system: APH(3’)-IIIa; parameters: method as in PMID 11514228; conditions: cited from earlier work

T1 sequence (O68183 1-301): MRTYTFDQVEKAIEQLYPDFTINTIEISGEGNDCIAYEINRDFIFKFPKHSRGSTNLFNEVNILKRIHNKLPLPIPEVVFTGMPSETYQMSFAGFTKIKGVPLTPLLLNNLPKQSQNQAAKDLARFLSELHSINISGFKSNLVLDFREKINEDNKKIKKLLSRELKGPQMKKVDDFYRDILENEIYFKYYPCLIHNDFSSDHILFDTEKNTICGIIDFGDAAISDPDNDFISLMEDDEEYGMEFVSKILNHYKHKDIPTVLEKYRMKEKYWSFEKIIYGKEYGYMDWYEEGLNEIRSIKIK

Question: With Nc1ncnc2c1ncn2[C@@H]1O[C@H](COP(=O)(O)OP(=O)(O)OP(=O)(O)O)[C@@H](O)[C@H]1O [ATP, adenosine 5’-triphosphate] as the compound, how does the Km (APH(2”)-IVa [1]) read?
Answer: The Km was 101 µM.

Question: And the Km (APH(3’)-IIb)?
Answer: The Km was 24 µM.

Question: And the Km (APH(3’)-IIa)?
Answer: Its Km is 45 µM.

Question: What does the source list for NCCNS(=O)(=O)c1ccc(Cl)c2ccncc12 [CKI-7]?
Answer: Ki (APH(3’)-IIIa [2]): 66 µM; Ki (APH(9)-Ia): 159 µM

Question: Which Ki (APH(3’)-Ia) does the source give for CC(C)(C)n1nc(-c2cccc3ccccc23)c2c(N)ncnc21 [Compound 1-NA-PP1] here?
Answer: Its Ki is 21.5 µM.

Question: And the “Rescue activity of kanamycin A” value [3]?
Answer: Its value is “demonstrated rescue activity of kanamycin A”.

Question: With CC(C)(C)n1nc(Cc2cccc3ccccc23)c2c(N)ncnc21 [Compound 1-NM-PP1] as the compound, how does the Ki (APH(3’)-Ia) read?
Answer: Its Ki is 34.4 µM.

Question: What about the “Rescue activity of kanamycin A” value [3] of the same compound?
Answer: Its value is “demonstrated rescue activity of kanamycin A”.

Question: With O=C(O)c1cc(NC2CC2)ncc1Cl [Compound 36] as the compound, how does the ΔTm at 500 µM (APH(2”)-IVa [4]) read?
Answer: The ΔTm at 500 µM was 2.69 °C.

Question: What about the Kd (APH(2”)-IVa [5]) of the same compound?
Answer: The Kd was 37.8 µM.

Question: What about the “kss” value (APH(2”)-IVa [6]; [36] = 20 µM, [MgATP] 0.1 mM) of the same compound?
Answer: The value was 0.130 s⁻¹.

Question: And the “kss” value (APH(2”)-IVa [6]; [36] = 20 µM, [MgATP] 0.2 mM)?
Answer: Its value is 0.200 s⁻¹.

Question: What about the “kss” value (APH(2”)-IVa [6]; [36] = 20 µM, [MgATP] 0.3 mM) of the same compound?
Answer: The value was 0.240 s⁻¹.

Question: And the “kss” value (APH(2”)-IVa [6]; [36] = 20 µM, [MgATP] 0.4 mM)?
Answer: Its value is 0.278 s⁻¹.

Question: And the “kss” value (APH(2”)-IVa [6]; [36] = 50 µM, [MgATP] 0.1 mM)?
Answer: Its value is 0.097 s⁻¹.

Question: What about the “kss” value (APH(2”)-IVa [6]; [36] = 50 µM, [MgATP] 0.2 mM) of the same compound?
Answer: Its value is 0.138 s⁻¹.

Question: What about the “kss” value (APH(2”)-IVa [6]; [36] = 50 µM, [MgATP] 0.3 mM) of the same compound?
Answer: The value was 0.175 s⁻¹.

Question: What about the “kss” value (APH(2”)-IVa [6]; [36] = 50 µM, [MgATP] 0.4 mM) of the same compound?
Answer: The value was 0.207 s⁻¹.

Question: And the “kss” value (APH(2”)-IVa [6]; [36] = 100 µM, [MgATP] 0.1 mM)?
Answer: Its value is 0.067 s⁻¹.

Question: What about the “kss” value (APH(2”)-IVa [6]; [36] = 100 µM, [MgATP] 0.2 mM) of the same compound?
Answer: Its value is 0.101 s⁻¹.

Question: What about the “kss” value (APH(2”)-IVa [6]; [36] = 100 µM, [MgATP] 0.3 mM) of the same compound?
Answer: The value was 0.133 s⁻¹.

Question: And the “kss” value (APH(2”)-IVa [6]; [36] = 100 µM, [MgATP] 0.4 mM)?
Answer: The value was 0.156 s⁻¹.

Question: What about the Ki (APH(2”)-IVa [7]) of the same compound?
Answer: Its Ki is 18.2 µM.

Question: With O=c1c(O)c(-c2ccc(O)c(O)c2)oc2cc(O)cc(O)c12 [Quercetin, quercetin] as the compound, how does the Ki (12 different APHs) read?
Answer: Its Ki is 0.07 to 25 µM.

Question: For COC[C@H]1OC(=O)c2coc3c2[C@@]1(C)C1=C(C3=O)[C@@H]2CCC(=O)[C@@]2(C)C[C@H]1OC(C)=O [Wortmannin, wortmannin], which Inhibition (APH(2”)-Ib) is on record?
Answer: Its Inhibition is 90%.

Question: What about the Inhibition (APH(3’)-IIIa [8]) of the same compound?
Answer: Its Inhibition is “did not affect”.
